Results on 44 compounds are retold here after patent publication US20250171459A1, “2-METHYL-4',5'-DIHYDROSPIRO[PIPERIDINE-4,7'-THIENO[2,3-C]PYRAN] DERIVATIVES AS INHIBITORS OF APOL1 AND METHODS OF USING SAME” (Vertex Pharmaceuticals Incorporated, priority 2022, published 2025).

The assay concerns the target T1, APOL1 (Homo sapiens, UniProt O14791).
T1 sequence (O14791 1-398 S342G/I384M): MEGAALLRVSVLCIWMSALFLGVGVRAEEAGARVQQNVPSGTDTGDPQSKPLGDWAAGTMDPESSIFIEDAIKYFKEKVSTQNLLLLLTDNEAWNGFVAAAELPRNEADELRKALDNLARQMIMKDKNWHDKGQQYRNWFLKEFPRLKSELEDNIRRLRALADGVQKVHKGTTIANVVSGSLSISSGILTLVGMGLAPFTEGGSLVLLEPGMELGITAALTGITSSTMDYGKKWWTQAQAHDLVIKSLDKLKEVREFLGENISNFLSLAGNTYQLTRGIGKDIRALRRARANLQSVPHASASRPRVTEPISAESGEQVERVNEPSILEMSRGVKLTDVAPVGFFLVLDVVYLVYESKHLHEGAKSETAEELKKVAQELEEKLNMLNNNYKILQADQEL
In words: MultiTox-Fluor Multiplex Cytotoxicity Assay in tet-inducible APOL1 T-REx-HEK293 cells (cell rescue, ratio of dead to live cells). In kind it is cell-based. The settings on record: tet-inducible transgenic APOL1 T-REx-HEK293 cell lines, 50 ng/mL tet, 24 hours; read-out: IP50 (i.e., IC50 for cell proliferation). The method, boiled down:
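T-REx-HEK293 cells with tet-inducible APOL1 were treated with compound (10 μM top, 10-point 3-fold dilution, duplicate) plus 50 ng/mL tetracycline for 24 h at 37° C, in DMEM with 2% tet-free FBS. MultiTox-Fluor protease signals gave a dead/live ratio, normalized to no tet (100% viability) and tet alone (0%).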

Each structure is given as a SMILES string.

Regarding `Cc1cc2c(s1)C1(CCN(Cc3cn(CCS(C)(=O)=O)nn3)[C@@H](C)C1)OCC2` (stereo partly drawn) [Compound 1029, (2′S)-2,2′-dimethyl-1′-[[1-(2-methylsulfonylethyl)triazol-4-yl]methyl]spiro[4,5-dihydrothieno[2,3-c]pyran-7,4′-piperidine]], the IC50 fell in the range of 0.1 to 0.5 µM.

Take `Cc1cc2c(s1)[C@]1(CCN(Cc3cnn(CCS(C)(=O)=O)c3)[C@@H](C)C1)OCC2(O)C(F)F` (stereo partly drawn) [Compound 1031, (2′S, 7R)-4-(difluoromethyl)-2,2′-dimethyl-1′-[[1-(2-methylsulfonylethyl)pyrazol-4-yl]methyl]spiro[5H-thieno[2,3-c]pyran-7,4′-piperidine]-4-ol]: the IC50 was below 0.1 µM.

On to `C[C@H]1C[C@@]2(CCN1Cc1cnn(CCS(C)(=O)=O)c1)OCCc1cc(CC(F)(F)F)sc12` [Compound 1032, (2′S, 7R)-2′-methyl-1′-[[1-(2-methylsulfonylethyl)pyrazol-4-yl]methyl]-2-(2,2,2-trifluoroethyl)spiro[4,5-dihydrothieno[2,3-c]pyran-7,4′-piperidine]], for which the IC50 was below 0.1 µM.

Take `C[C@H]1C[C@@]2(CCN1Cc1cnn(CCS(C)(=O)=O)c1)OCCc1cc(C3CCC3)sc12` [Compound 1033, (2′S,7R)-2-cyclobutyl-2′-methyl-1′-[[1-(2-methylsulfonylethyl)pyrazol-4-yl]methyl]spiro[4,5-dihydrothieno[2,3-c]pyran-7,4′-piperidine]]: the IC50 is below 0.1 µM.

On to `C[C@H]1C[C@@]2(CCN1Cc1cnn(CCS(C)(=O)=O)c1)OCCc1cc(C3CC3)sc12` [Compound 1034, (2′S, 7R)-2-cyclopropyl-2′-methyl-1′-[[1-(2-methylsulfonylethyl)pyrazol-4-yl]methyl]spiro[4,5-dihydrothieno[2,3-c]pyran-7,4′-piperidine]], for which the IC50 is below 0.1 µM.

With `C[C@H]1C[C@@]2(CCN1Cc1cnn(CCS(C)(=O)=O)c1)OCCc1cc(C#N)sc12` [Compound 1035, (2′S,7R)-2′-methyl-1′-[[1-(2-methylsulfonylethyl)pyrazol-4-yl]methyl]spiro[4,5-dihydrothieno[2,3-c]pyran-7,4′-piperidine]-2-carbonitrile], the IC50 is below 0.1 µM.

With `CCc1cc2c(s1)[C@]1(CCN(Cc3cn(CCS(C)(=O)=O)nn3)[C@@H](C)C1)OCC2` [Compound 1036, (2′S, 7R)-2-ethyl-2′-methyl-1′-[[1-(2-methylsulfonylethyl)triazol-4-yl]methyl]spiro[4,5-dihydrothieno[2,3-c]pyran-7,4′-piperidine]], the IC50 is below 0.1 µM.

On to `CCc1cc2c(s1)[C@]1(CCN(Cc3cnn(CCS(C)(=O)=O)c3)[C@@H](C)C1)OCC2O` (stereo partly drawn) [Compound 1037, (2′S, 7R)-2-ethyl-2′-methyl-1′-[[1-(2-methylsulfonylethyl)pyrazol-4-yl]methyl]spiro[4,5-dihydrothieno[2,3-c]pyran-7,4′-piperidine]-4-ol], for which the IC50 was below 0.1 µM.

Consider `CCc1cc2c(s1)[C@]1(CCN(Cc3cn(CCS(C)(=O)=O)nn3)[C@@H](C)C1)OCC2O` (stereo partly drawn) [Compound 1038, (2′S,7R)-2-ethyl-2′-methyl-1′-[[1-(2-methylsulfonylethyl)triazol-4-yl]methyl]spiro[4,5-dihydrothieno[2,3-c]pyran-7,4′-piperidine]-4-ol], for which the IC50 was below 0.1 µM.

`CCc1cc2c(s1)CCO[C@@]21CCN(C[C@H]2C[C@@H](NC(=O)OC(C)(C)C)C2)[C@@H](C)C1` [Compound 1039]: the IC50 is below 0.1 µM.

For `CS(=O)(=O)CCn1cc(CN2CCC3(CC2C2CC2)OCCc2cc(Cl)sc23)cn1` (centres unmarked) [Compound 1040, 2-chloro-2′-cyclopropyl-1′-[[1-(2-methylsulfonylethyl)pyrazol-4-yl]methyl]spiro[4,5-dihydrothieno[2,3-c]pyran-7,4′-piperidine]], the IC50 was below 0.1 µM.

Regarding `CCc1cc2c(s1)CCOC21CCN(Cc2cnn(C)c2)C(CC)C1` (centres unmarked) [Compound 1041, 2,2′-diethyl-1-((1-methyl-1H-pyrazol-4-yl)methyl)-6′,7′-dihydrospiro[piperidine-4,4′-thieno [3,2-c]pyran]], the IC50 was below 0.1 µM.

Take `CCc1cc2c(s1)CCOC21CCN(Cc2cnn(C)c2)C2(CCC2)C1` (centres unmarked) [Compound 1042, 2″-ethyl-1′-((1-methyl-1H-pyrazol-4-yl)methyl)-6″,7″-dihydrodispiro[cyclobutane-1,2′-piperidine-4′,4″-thieno[3,2-c]pyran]]: the IC50 was 0.1 to 0.5 µM.

Take `CCc1cc2c(s1)CCOC21CCN(Cc2ccc(C(=O)N[C@H]3CC[C@H](O)CC3)nc2)CC1` [Compound 1043, 5-((2′-ethyl-6′,7′-dihydrospiro[piperidine-4,4′-thieno[3,2-c]pyran]-1-yl)methyl)-N-((1r,4r)-4-hydroxycyclohexyl)picolinamide]: the IC50 is below 0.1 µM.

Take `CCc1cc2c(s1)CCOC21CCN(Cc2ccc(C(=O)Nc3c[nH]c4ccccc34)nc2)CC1` [Compound 1044]: the IC50 is below 0.1 µM.

On to `CCc1cc2c(s1)CCOC21CCN(Cc2ccc(C(=O)NC(C)(CC)CO)nc2)CC1` (centres unmarked) [Compound 1045], for which the IC50 was below 0.1 µM.

Regarding `CCc1cc2c(s1)CCOC21CCN(Cc2ccc(C(=O)N[C@H](C)CO)nc2)CC1` [Compound 1046], the IC50 was below 0.1 µM.

Consider `CCc1cc2c(s1)CCOC21CCN(Cc2ccc(C(=O)NC(C)(C)CO)nc2)CC1` [Compound 1047], for which the IC50 was below 0.1 µM.

`CCc1cc2c(s1)CCOC21CCN(Cc2ccc(C(=O)Nc3cccc4cc[nH]c34)nc2)CC1` [Compound 1048]: the IC50 is below 0.1 µM.

Regarding `CCc1cc2c(s1)CCOC21CCN(Cc2ccc(C(=O)NCCC(=O)N3CCCC3)nc2)CC1` [Compound 1049], the IC50 was below 0.1 µM.

On to `CCc1cc2c(s1)CCOC21CCN(Cc2ccc(C(=O)N3CC(CO)C3)nc2)CC1` [Compound 1050], for which the IC50 was below 0.1 µM.

Turning to `CCc1cc2c(s1)CCOC21CCN(Cc2ccc(C(=O)Nc3ccn(C)n3)nc2)CC1` [Compound 1051], the IC50 was below 0.1 µM.

Consider `CCc1cc2c(s1)CCOC21CCN(Cc2ccc(C(=O)Nc3ccnn3C)nc2)CC1` [Compound 1052], for which the IC50 is below 0.1 µM.

As to `CCc1cc2c(s1)CCOC21CCN(Cc2ccc(C(=O)N[C@H](CC)CO)nc2)CC1` [Compound 1053], the IC50 was below 0.1 µM.

For `CCc1cc2c(s1)CCOC21CCN(Cc2ccc(C(=O)NC(C)CCO)nc2)CC1` (centres unmarked) [Compound 1054], the IC50 is below 0.1 µM.

Take `CCc1cc2c(s1)CCOC21CCN(Cc2ccc(C(=O)NC3CC(O)C3)nc2)CC1` (centres unmarked) [Compound 1055]: the IC50 was below 0.1 µM.

Regarding `CCc1cc2c(s1)CCOC21CCN(Cc2ccc(C(=O)NCCO)nc2)CC1` [Compound 1056], the IC50 lay within 0.1 to 0.5 µM.

With `CCc1cc2c(s1)CCOC21CCN(Cc2ccc(C(=O)NC(CO)CO)nc2)CC1` [Compound 1057], the IC50 fell in the range of 0.1 to 0.5 µM.

For `CCc1cc2c(s1)CCOC21CCN(Cc2ccc(C(=O)NC3CCCC3=O)nc2)CC1` (centres unmarked) [Compound 1058], the IC50 lay within 0.1 to 0.5 µM.

`CCc1cc2c(s1)CCOC21CCN(Cc2ccc(C(=O)NCc3ccn(C)n3)nc2)CC1` [Compound 1059]: the IC50 lay within 0.1 to 0.5 µM.

Regarding `CCc1cc2c(s1)CCOC21CCN(Cc2ccc(C(=O)NCC3CCC(O)C3)nc2)CC1` (centres unmarked) [Compound 1060], the IC50 fell in the range of 0.1 to 0.5 µM.

As for `CCc1cc2c(s1)CCOC21CCN(Cc2ccc(C(=O)NCC(C)O)nc2)CC1` (centres unmarked) [Compound 1061], the IC50 was 0.1 to 0.5 µM.

Turning to `CCc1cc2c(s1)CCOC21CCN(Cc2ccc(C(=O)NCC3(C)CCOC3)nc2)CC1` (centres unmarked) [Compound 1062], the IC50 fell in the range of 0.1 to 0.5 µM.

As for `CCc1cc2c(s1)CCOC21CCN(Cc2ccc(C(=O)NCCOCCO)nc2)CC1` [Compound 1063], the IC50 lay in the range of 0.1 to 0.5 µM.

Take `CCc1cc2c(s1)CCOC21CCN(Cc2ccc(C(=O)NC3CC(C)(O)C3)nc2)CC1` (centres unmarked) [Compound 1064]: the IC50 fell in the range of 0.1 to 0.5 µM.

On to `CCc1cc2c(s1)CCOC21CCN(Cc2ccc(C(=O)N(C)[C@H]3CC[C@H](O)CC3)nc2)CC1` [Compound 1065], for which the IC50 fell in the range of 0.5 to 1 µM.

Turning to `CCc1cc2c(s1)CCOC21CCN(Cc2ccc(N3C[C@@H](O)[C@H](O)C3)nc2)CC1` [Compound 1066, (3R,4R)-1-(5-((2′-ethyl-6′,7′-dihydrospiro[piperidine-4,4′-thieno[3,2-c]pyran]-1-yl)methyl)pyridin-2-yl)pyrrolidine-3,4-diol], the IC50 was below 0.1 µM.

As to `CCc1cc2c(s1)CCOC21CCN(Cc2ccc(N[C@H]3CC[C@H](O)CC3)nc2)CC1` [Compound 1067], the IC50 is below 0.1 µM.

As for `CCc1cc2c(s1)CCOC21CCN(Cc2ccc(NCC3CCOCC3)nc2)CC1` [Compound 1068], the IC50 was below 0.1 µM.

With `CCc1cc2c(s1)CCOC21CCN(Cc2ccc(NS(=O)(=O)C3CC3)nc2)CC1` [Compound 1069], the IC50 lay in the range of 0.1 to 0.5 µM.

`CCc1cc2c(s1)CCOC21CCN(Cc2ccc(NC3(CO)CC3)nc2)CC1` [Compound 1070]: the IC50 was 0.1 to 0.5 µM.

As for `CCc1cc2c(s1)CCOC21CCN(Cc2ccc(N(C)S(C)(=O)=O)nc2)CC1` [Compound 1071], the IC50 fell in the range of 0.1 to 0.5 µM.

In the case of `CCc1cc2c(s1)CCOC21CCN(Cc2ccc(NC3(COC)CC3)nc2)CC1` [Compound 1072], the IC50 lay in the range of 0.1 to 0.5 µM.

Take `CCc1cc2c(s1)CCOC21CCN(Cc2cnc(N[C@H]3CC[C@H](O)CC3)nc2)CC1` [Compound 1073, (1r,4r)-4-((5-((2′-ethyl-6′,7′-dihydrospiro[piperidine-4,4′-thieno[3,2-c]pyran]-1-yl)methyl)pyrimidin-2-yl)amino)cyclohexan-1-ol]: the IC50 is below 0.1 µM.
